Consider three compounds from the NIST ThermoML archive (doi:10.1021/je0342318).

The conditions of data set [1]: Liquid; for mass density: 298.15 K, 101.33 kPa.
A short description of data set [2]: refractive index (Na D-line) (dimensionless). To be noted: 298.15 K; 101.33 kPa; Liquid.

The structures appear in SMILES notation. Numbers after ± are expanded uncertainties.

In general, mass density refers to the mass of a sample divided by its volume. What is called refractive index is the speed of light in vacuum divided by its phase velocity in the sample. Take `Cc1ccc(C)cc1` [1,4-dimethylbenzene]: the mass density in data set [1] (Vibrating tube method) is 856.55 ± 0.56 kg/m3. Besides, in data set [1], the Normal boiling temperature is 138.08 ± 0.5 °C. Further, in data set [2], the refractive index was found to be 1.493 ± 0.001.
Turning to `CCO` [ethanol], in data set [1] (Vibrating tube method), the mass density is on record as 785.04 ± 0.51 kg/m3. Besides, the Normal boiling temperature in data set [1] amounted to 78.26 ± 0.1 °C. Also, the refractive index in data set [2] came to 1.3592 ± 0.0006.
Take `CC1CCCCC1` [methylcyclohexane]: in data set [1], the mass density was 764.87 ± 0.44 kg/m3 and the Normal boiling temperature stood at 100.81 ± 0.5 °C. Besides, the refractive index in data set [2] is 1.4204 ± 0.0006.
